Measurements: US12372533B2, “Identification of immunogenic mutant peptides using genomic, transcriptomic and proteomic information” (Genentech, Inc., priority 2014, dated 2025)
Where a SMILES comes first, the peptide text is derived from it.

Tests used:
Format in all cases: in vivo, mouse
[1] = tested on: MC-38 tumors; experiment: Peptide-specific CD8 tumor-infiltrating cells (TILs) in MC-38 tumors, dextramer staining; conditions: for peptide-specific CD8 T cells in the tumor bed: FIG. 4B
Excerpt: (§1) The immunogenicity of these mutated peptides was confirmed in the context of the tumor by analyzing tumor-infiltrating cells (TILs).
C57BL/6 mice were implanted subcutaneously on the right flank with 1×10^5 MC-38 tumor cells. The whole tumor was isolated and digested with collagenase and DNAase to isolate TILs. TILs were stained with dextramers (as described above) followed by antibodies against CD45, Thy1.2, CD4, CD8 (BD Biosciences), PD-1 (eBiosciences) and TIM-3 (R&D Systems). Live/dead stain was used to gate on live cells.

[2] = tested on: wild type C57BL/6 mice; experiment: Immunization of mice with long peptides plus adjuvant, CD8 T cell response by MHCI/peptide-specific dextramers; conditions: long peptides encoding the mutated epitopes plus adjuvant, day 0 and day 14, compared to adjuvant alone; FIG. 4A
[3] = tested on: TRAMP-C1 tumors; experiment: Peptide-specific CD8 tumor-infiltrating cells in syngeneic TRAMP-C1 tumors
Excerpt: as §1

Compound	peptide-specific CD8 T cells in the tumor bed [1]	CD8 T cell response [2]	Adpgk-specific CD8 T cells in tumor [3]	relative abundance of peptide-specific CD8 T cells among Reps1, Adpgk and Dpagt1 [1]
CC(C)C[C@H](NC(=O)[C@@H](NC(=O)[C@@H](NC(=O)[C@H](CC(=O)O)NC(=O)[C@H](CC(N)=O)NC(=O)[C@H](C)NC(=O)[C@H](CC(C)C)NC(=O)[C@H](CCC(N)=O)NC(=O)[C@H](C)N)C(C)C)C(C)C)C(=O)O [Reps1, AQLANDVVL] (H-AQLANDVVL-OH; N-terminus and C-terminus assumed)	enriched in the tumor bed	strong CD8 T cell responses		
ASMTNMELM [Adpgk, mutant peptide presented on MHCI (H-2Db) in the MC-38 cell line]	enriched in the tumor bed	strong CD8 T cell responses	no Adpgk-specific CD8 T cells were detected	most abundant of the three
SIIVFNLL [Dpagt1, mutant peptide presented on MHCI (H-2Kb) in the MC-38 cell line]	enriched in the tumor bed	weak CD8 T cells response		
